Test results as given in ChEMBL document CHEMBL1201862, “PubChem BioAssay data set” (2004).
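48-hour exposure; five concentrations; linearly interpolated endpoints. GI50: concentration for 50% inhibition of growth.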 Activity calls are given as the source filed them. Cut-off read from the data, not from the text of the source: active = GI50 up to about 1.1 µM and inactive = higher.

Assays:
Assay in all cases: NCI-60 cell line screen, 48 h
[1] = tested on: LOX IMVI
[2] = tested on: OVCAR-4
[3] = tested on: MDA-MB-435
[4] = tested on: K562
[5] = tested on: EKVX
[6] = tested on: RPMI-8226
[7] = tested on: HCT-15
[8] = tested on: SF-268
[9] = tested on: HCC 2998
[10] = tested on: A549
[11] = tested on: OVCAR-8
[12] = tested on: ACHN
[13] = tested on: SK-OV-3
[14] = tested on: UACC-257
[15] = tested on: DU-145
[16] = tested on: IGROV-1
[17] = tested on: TK-10
[18] = tested on: BT-549
[19] = tested on: MDA-MB-231
[20] = tested on: SNB-75
[21] = tested on: NCI-H226
[22] = tested on: HCT-116
[23] = tested on: M14
[24] = tested on: Hs-578T
[25] = tested on: U-251
[26] = tested on: SNB-19
[27] = tested on: HT-29
[28] = tested on: 786-0
[29] = tested on: UO-31
[30] = tested on: MOLT-4
[31] = tested on: SK-MEL-2
[32] = tested on: MDA-N
[33] = tested on: CCRF-CEM
[34] = tested on: PC-3
[35] = tested on: Malme-3M
[36] = tested on: NCI-H23
[37] = tested on: NCI/ADR-RES
[38] = tested on: NCI-H460
[39] = tested on: UACC-62
[40] = tested on: OVCAR-5
[41] = tested on: SK-MEL-28
[42] = tested on: MCF7
[43] = tested on: SF-539
[44] = tested on: CAKI-1
[45] = tested on: HOP-92
[46] = tested on: OVCAR-3
[47] = tested on: SK-MEL-5
[48] = tested on: COLO 205
[49] = tested on: T47D
[50] = tested on: A498
[51] = tested on: KM12
[52] = tested on: NCI-H522
[53] = tested on: SN12C
[54] = tested on: HL-60
[55] = tested on: SW-620

## Cc1occc1/C(S)=N\c1ccc(Cl)c(C(=O)OCC(F)(F)F)c1
[1]
  GI50: 18.4 µM (inactive)
[2]
  GI50: 17.9 µM (inactive)
[3]
  GI50: 20.3 µM (inactive)
[4]
  GI50: 18.5 µM (inactive)
[5]
  GI50: 25.5 µM (inactive)
[6]
  GI50: 19 µM (inactive)
[7]
  GI50: 19.6 µM
[8]
  GI50: 20.7 µM (inactive)
[9]
  GI50: 18.7 µM (inactive)
[10]
  GI50: 23.1 µM (inactive)
[11]
  GI50: 16.7 µM (inactive)
[12]
  GI50: 21.8 µM (inactive)
[13]
  GI50: 22.3 µM (inactive)
[14]
  GI50: 23.4 µM (inactive)
[15]
  GI50: 22.4 µM (inactive)
[16]
  GI50: 18.4 µM (inactive)
[17]
  GI50: 20.2 µM (inactive)
[18]
  GI50: 20.5 µM (inactive)
[19]
  GI50: 18 µM (inactive)
[20]
  GI50: 24.1 µM (inactive)
[21]
  GI50: 18.6 µM (inactive)
[22]
  GI50: 17.9 µM (inactive)
[23]
  GI50: 33.7 µM (inactive)
[24]
  GI50: 35.6 µM (inactive)
[25]
  GI50: 19 µM (inactive)
[26]
  GI50: 20.3 µM (inactive)
[27]
  GI50: 17.5 µM (inactive)
[28]
  GI50: 18.7 µM (inactive)
[29]
  GI50: 19.4 µM (inactive)
[30]
  GI50: 18.2 µM (inactive)
[31]
  GI50: 22 µM (inactive)
[32]
  GI50: 29 µM (inactive)
[33]
  GI50: 17.9 µM (inactive)
[34]
  GI50: 23.7 µM (inactive)
[35]
  GI50: 29.8 µM (inactive)
[36]
  GI50: 19.7 µM (inactive)
[37]
  GI50: 17.8 µM (inactive)
[38]
  GI50: 22.1 µM (inactive)
[39]
  GI50: 16.4 µM (inactive)
[40]
  GI50: 34.6 µM (inactive)
[41]
  GI50: 21.5 µM (inactive)
[42]
  GI50: 12.2 µM (inactive)
[43]
  GI50: 4.31 µM (inactive)
[44]
  GI50: 14.7 µM (inactive)
[45]
  GI50: 17.4 µM (inactive)
[46]
  GI50: 29.6 µM (inactive)
[47]
  GI50: 16.7 µM (inactive)
[48]
  GI50: 22.4 µM (inactive)
[49]
  GI50: 26.5 µM (inactive)
[50]
  GI50: 15 µM (inactive)
[51]
  GI50: 20.8 µM (inactive)
[52]
  GI50: 20.4 µM (inactive)
[53]
  GI50: 18.8 µM (inactive)
[54]
  GI50: 24.4 µM (inactive)
[55]
  GI50: 23.7 µM (inactive)
